Here are results for four compounds from patent US20080152735A1, “Herbal Extract Having Anti- Influenza Virus Activity and Preparation of Same” (NATIONAL DEFENSE MEDICAL CENTER, priority 2006, published 2008).

One data set relates to influenza virus (H1N1). As to the kind of experiment: in vitro anti-influenza virus test in MDCK cells, MTT readout. It counts as cell-based.
Data set [1] has as its system neuraminidase (NA) of influenza virus. It counts as biochemical. The settings on record: for FU/min (neuraminidase enzymatic activity in presence of medicament): kit positive control 0.42 FU/min; for activity relative to that of Tamiflu: same dosage 0.5 mg/mL, ratio of FU/min values.
Data set [2] concerns MDCK cells (Madin-Darby Canine Kidney Epithelial Cells).

Read-outs that look alike come from different tables or passages of the source.

For the compound `NC(=O)c1ncn([C@@H]2O[C@H](CO)[C@@H](O)[C@H]2O)n1` [Ribavirin, reference compound], the “D1 + V” value in the data set on influenza virus (H1N1) (MTT absorbance percentage vs mock control, […], dosage 9.37 μg/mL, MDCK cells, H1N1) was “+++ (>75≦100 as +++)”.

Consider `CC(C)=CCc1c(O)cc2oc(-c3ccc(O)cc3)c(O)c(=O)c2c1O` [SOFL-EM-8-6C, licoflavonol], for which the cell survival rate entry in the data set with influenza virus (H1N1) (D1+V: infecting with virus one hour after pretreatment with test drug, 10 μg/mL) is “up to 100%”; in the data set with influenza virus (H1N1) (DV: cells treated simultaneously with test drug and virus, 10 μg/mL) it was 75%; in the data set with influenza virus (H1N1) (V1+D: test drug added one hour after adsorption of virus on cell, 10 μg/mL), 100%. In the data set with influenza virus (H1N1) (MTT absorbance percentage vs mock control, cells treated simultaneously with test drug and virus, dosage 10 μg/mL, MDCK cells, H1N1), the DV result is “+++ (>75≦100 as +++)”. The “V1 + D” value with influenza virus (H1N1) (MTT absorbance percentage vs mock control, test drug added one hour after adsorption of virus on cell, dosage 10 μg/mL, MDCK cells, H1N1) was “++++ (>100 as ++++)”. In addition, the “D1 + V” value in the data set on influenza virus (H1N1) (MTT absorbance percentage vs mock control, virus infection one hour after pretreatment with test drug, dosage 10 μg/mL, MDCK cells, H1N1) is reported as “++++ (>100 as ++++)”. The Response entry in data set [1] (dosage 0.05 mg/mL) and in data set [1] (dosage 0.5 mg/mL) was “Inhibition” throughout. The “FU/min (neuraminidase enzymatic activity in presence of medicament)” value (shortened to “FU/min”) stood at 0.13 FU/min in data set [1] (dosage 0.05 mg/mL) and 0.02 FU/min in data set [1] (dosage 0.5 mg/mL). For the same compound, the “activity relative to that of Tamiflu” value in data set [1] is reported as “two-fold”.

Take `O=c1c(O)c(-c2ccc(O)cc2)oc2cc(O)cc(O)c12` [SOFL-EM-8-6S, kaempferol]: the cell survival rate result in the data set on influenza virus (H1N1) (D1+V: infecting with virus one hour after pretreatment with test drug, 18.75 μg/mL) was “up to 75%”. For the same compound, in the data set on influenza virus (H1N1) (MTT absorbance percentage vs mock control, virus infection one hour after pretreatment with test drug, dosage 18.75 μg/mL, MDCK cells, H1N1), the “D1 + V” value is reported as “+++ (>75≦100 as +++)”. Further, in data set [1] (dosage 0.5 mg/mL), the Response entry is listed as “Inhibition” and the “FU/min” value was 0.06 FU/min. The “activity relative to that of Tamiflu” value in data set [1] was “six-fold”. Moreover, in data set [2], the D entry was “++++ (key: absorbance percentage≦25 was recorded as +/−; >25≦50 recorded as +; >50≦75 as ++; >75≦100 as +++; >100 as ++++)”.

Turning to `CCOC(=O)C1=C[C@@H](OC(CC)CC)[C@H](NC(C)=O)[C@@H](N)C1` [Tamiflu, reference compound], in data set [1] (dosage 0.5 mg/mL), the Response result is given as “Inhibition” and the “FU/min” value is recorded as 0.01 FU/min.
